22 compounds from US10730863B2, “Bridged bicyclic compounds as farnesoid X receptor modulators” (BRISTOL-MYERS SQUIBB COMPANY, priority 2017, dated 2020) can be followed below.

Structures are written as SMILES.

This test deals with FXR (Homo sapiens (Human), UniProt Q96RI1). The experiment in a line: FXR EC50 (FXR agonist activity reported with each example). The test is classed as cell-based.
Sequence of FXR (Q96RI1 262-486): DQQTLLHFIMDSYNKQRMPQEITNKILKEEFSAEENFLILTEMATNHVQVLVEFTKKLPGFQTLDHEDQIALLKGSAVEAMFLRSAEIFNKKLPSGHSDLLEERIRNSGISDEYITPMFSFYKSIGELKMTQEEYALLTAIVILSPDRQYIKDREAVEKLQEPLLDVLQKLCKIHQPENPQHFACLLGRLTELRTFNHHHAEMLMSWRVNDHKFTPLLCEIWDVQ
`Cn1cc(C(=O)O)c2ccc(OCC34CCC(OCc5c(-c6ccccc6OC(F)(F)F)noc5C5CC5)(CC3)CC4)cc21` [Example 84]: a half-maximal effect (EC50) was put at 0.32 µM.

In turn, `O=C(O)c1cccc(NCC23CCC(OCc4c(-c5ccccc5OC(F)(F)F)noc4C4CC4)(CC2)CC3)c1` [Example 85] had an EC50 of 0.61 µM.

The compound `N#Cc1cccc(OCC23CCC(OCc4c(-c5c(Cl)cccc5Cl)noc4C4CC4)(CC2)CC3)c1` [Example 88, 3-((4-((5-cyclopropyl-3-(2,6-dichlorophenyl)isoxazol-4-yl)methoxy)bicyclo[2.2.2]octan-1-yl)methoxy)benzonitrile] came in with an EC50 of 0.96 µM.

Regarding `Clc1cccc(Cl)c1-c1noc(C2CC2)c1COC12CCC(COc3cccc(-c4nn[nH]n4)c3)(CC1)CC2` [Example 89, 4-((4-((3-(2H-tetrazol-5-yl)phenoxy)methyl)bicyclo[2.2.2]octan-1-yloxy)methyl)-5-cyclopropyl-3-(2,6-dichlorophenyl)isoxazole], the EC50 was found to be 0.12 µM.

Turning to `Cn1cc(C(=O)O)c2ccc(OCC34CCC(OCc5c(-c6c(Cl)cccc6Cl)noc5C5CC5)(CC3)CC4)cc21` [Example 90, 6-((4-((5-cyclopropyl-3-(2,6-dichlorophenyl)isoxazol-4-yl)methoxy)bicyclo[2.2.2]octan-1-yl)methoxy)-1-methyl-1H-indole-3-carboxylic acid], the EC50 is 0.011 µM.

In turn, `O=C(O)c1cccc(OCC23CCC(OCc4c(-c5c(Cl)cncc5Cl)noc4C4CC4)(CC2)CC3)c1` [Example 91, 3-((4-((5-cyclopropyl-3-(3,5-dichloropyridin-4-yl)isoxazol-4-yl)methoxy)bicyclo[2.2.2]octan-1-yl)methoxy) benzoic acid] displayed an EC50 of 0.033 µM.

In the case of `O=C(O)c1ccc(F)c(OCC23CCC(OCc4c(-c5c(Cl)cccc5Cl)noc4C4CC4)(CC2)CC3)c1` [Example 92, 3-((4-((5-cyclopropyl-3-(2,6-dichlorophenyl)isoxazol-4-yl)methoxy)bicyclo[2.2.2]octan-1-yl)methoxy)-4-fluorobenzoic acid], the EC50 amounted to 0.023 µM.

In turn, `O=C(O)c1cc(OCC23CCC(OCc4c(-c5c(Cl)cccc5Cl)noc4C4CC4)(CC2)CC3)ccc1F` [Example 93, 5-((4-((5-cyclopropyl-3-(2,6-dichlorophenyl)isoxazol-4-yl)methoxy)bicyclo[2.2.2]octan-1-yl)methoxy)-2-fluorobenzoic acid] gave an EC50 of 0.032 µM.

Compound `O=C(O)c1cc(F)cc(OCC23CCC(OCc4c(-c5c(Cl)cccc5Cl)noc4C4CC4)(CC2)CC3)c1` [Example 94, 3-((4-((5-cyclopropyl-3-(2,6-dichlorophenyl)isoxazol-4-yl)methoxy)bicyclo[2.2.2]octan-1-yl)methoxy)-5-fluorobenzoic acid] yielded an EC50 of 0.018 µM.

`Cc1c(OCC23CCC(OCc4c(-c5c(Cl)cccc5Cl)noc4C4CC4)(CC2)CC3)cccc1C(=O)O` [Example 95, 3-((4-((5-cyclopropyl-3-(2,6-dichlorophenyl)isoxazol-4-yl)methoxy)bicyclo[2.2.2]octan-1-yl)methoxy)-2-methylbenzoic acid] had an EC50 of 0.4 µM.

Compound `O=C(O)c1cccc(OCC23CCC(OCc4c(-c5c(Cl)cccc5Cl)noc4C4CC4)(CC2)CC3)c1F` [Example 96, 3-((4-((5-cyclopropyl-3-(2,6-dichlorophenyl)isoxazol-4-yl)methoxy)bicyclo[2.2.2]octan-1-yl)methoxy)-2-fluorobenzoic acid] yielded an EC50 of 0.12 µM.

The compound `Cn1cc(C(=O)O)c2ccc(OCC34CCC(OCc5c(-c6c(Cl)cncc6Cl)noc5C5CC5)(CC3)CC4)cc21` [Example 97, 6-((4-((5-cyclopropyl-3-(3,5-dichloropyridin-4-yl)isoxazol-4-yl)methoxy)bicyclo[2.2.2]octan-1-yl)methoxy)-1-methyl-1H-indole-3-carboxylic acid] came in with an EC50 of 0.028 µM.

Regarding `O=C(O)c1ccc(F)c(OCC23CCC(OCc4c(-c5c(Cl)cncc5Cl)noc4C4CC4)(CC2)CC3)c1` [Example 98, 3-((4-((5-cyclopropyl-3-(3,5-dichloropyridin-4-yl)isoxazol-4-yl)methoxy)bicyclo[2.2.2]octan-1-yl)methoxy)-4-fluorobenzoic acid], the EC50 was found to be 0.022 µM.

Consider `O=C(O)c1ccc(OCC23CCC(OCc4c(-c5c(Cl)cccc5Cl)noc4C4CC4)(CC2)CC3)cc1` [Example 99, 4-((4-((5-cyclopropyl-3-(2,6-dichlorophenyl)isoxazol-4-yl)methoxy)bicyclo[2.2.2]octan-1-yl)methoxy) benzoic acid], for which the EC50 was 0.14 µM.

As to `O=C(O)c1cc(C(F)(F)F)c2cc(OCC34CCC(OCc5c(-c6c(Cl)cccc6Cl)noc5C5CC5)(CC3)CC4)ccc2n1` [Example 100, 6-((4-((5-cyclopropyl-3-(2,6-dichlorophenyl)isoxazol-4-yl)methoxy)bicyclo[2.2.2]octan-1-yl)methoxy)-4-(trifluoromethyl) quinoline-2-carboxylic acid], the response was half-maximal at 0.007 µM (EC50).

Turning to `O=C(O)c1cc(OCC23CCC(OCc4c(-c5c(Cl)cncc5Cl)noc4C4CC4)(CC2)CC3)cc(C(F)(F)F)c1` [Example 103, 3-((4-((5-cyclopropyl-3-(3,5-dichloropyridin-4-yl)isoxazol-4-yl)methoxy)bicyclo[2.2.2]octan-1-yl)methoxy)-5-(trifluoromethyl)benzoic acid], the EC50 turned out to be 0.004 µM.

In turn, `O=C(O)Cc1ccnc(OCC23CCC(OCc4c(-c5c(Cl)cccc5Cl)noc4C4CC4)(CC2)CC3)c1` [Example 104, 2-(2-((4-((5-cyclopropyl-3-(2,6-dichlorophenyl)isoxazol-4-yl)methoxy)bicyclo[2.2.2]octan-1-yl)methoxy)pyridin-4-yl)acetic acid] returned a concentration giving a half-maximal response (EC50) of 0.21 µM.

For `O=C(O)c1ccc2cc(OCC34CCC(OCc5c(-c6c(Cl)cccc6Cl)noc5C5CC5)(CC3)CC4)ccc2n1` [Example 105, 6-((4-((5-cyclopropyl-3-(2,6-dichlorophenyl)isoxazol-4-yl)methoxy)bicyclo[2.2.2]octan-1-yl)methoxy)quinoline-2-carboxylic acid], the EC50 is 0.076 µM.

Compound `O=C(O)Cc1cccc(OCC23CCC(OCc4c(-c5c(Cl)cccc5Cl)noc4C4CC4)(CC2)CC3)c1` [Example 106, 2-(3-((4-((5-cyclopropyl-3-(2,6-dichlorophenyl)isoxazol-4-yl)methoxy)bicyclo[2.2.2]octan-1-yl)methoxy)phenyl)acetic acid] registered an EC50 of 0.16 µM.

`O=C(O)c1ccc(OCC23CCC(OCc4c(-c5c(Cl)cccc5Cl)noc4C4CC4)(CC2)CC3)nc1` [Example 107, 6-((4-((5-cyclopropyl-3-(2,6-dichlorophenyl)isoxazol-4-yl)methoxy)bicyclo[2.2.2]octan-1-yl)methoxy)nicotinic acid]: the EC50 is 0.077 µM.

`O=C(O)c1ccnc(OCC23CCC(OCc4c(-c5c(Cl)cccc5Cl)noc4C4CC4)(CC2)CC3)n1` [Example 108, 2-((4-((5-cyclopropyl-3-(2,6-dichlorophenyl)isoxazol-4-yl)methoxy)bicyclo[2.2.2]octan-1-yl)methoxy)pyrimidine-4-carboxylic acid] displayed an EC50 of 0.54 µM.

Compound `O=C(O)c1cncc(OCC23CCC(OCc4c(-c5c(Cl)cccc5Cl)noc4C4CC4)(CC2)CC3)c1` [Example 109, 5-((4-((5-cyclopropyl-3-(2,6-dichlorophenyl)isoxazol-4-yl)methoxy)bicyclo[2.2.2]octan-1-yl)methoxy)nicotinic acid] came in with a half-maximal effective concentration (EC50) of 0.15 µM.
